Holding throughout (format): in vitro ADME
Data set [1] is described as follows: Human liver microsomal stability assay (Test 1). The conditions noted are these: liver microsomes, 0.5 uM test compound, 37°C, up to 45 minutes, 0.5 mg microsomal protein, NADPH generating system, pH 7.4, read-out: Test 1 T1/2. On the procedure: (§1) Four assays on compounds were carried out by the following methods with the results shown in Table I. • (Test 1) Human liver microsomal stability assay was conducted by incubating 0.5 uM test compounds at 37°C for up to 45 minutes in 50 mM of potassium phosphate buffer (pH 7.4) containing 0.5 mg of microsomal protein and 50 µL of NADPH generating system (7.8 mg of glucose 6-phosphate, 1.7 mg of NADPH and 6 U of glucose 6-phosphate dehydrogenase per mL in 2% w/v of sodium bicarbonate). At 0, 5, 15, 30 and 45 min., an aliquot was taken, quenched with internal standard containing stop solution. No co-factor controls at 45 minutes were also prepared. After incubation, the samples were analyzed by LC-MS/MS. Peak area ratios of analyte to internal standard were used to calculate the intrinsic clearance. The intrinsic clearance (CLint) was determined from the first order elimination constant by non-linear regression. Formation of the active drug Compound A over the time course was also monitored by LC-MS/MS analysis. • (Test 2) Human plasma stability assay was conducted by incubating 0.5 uM test compounds at 37°C for up to 120 minutes in heparinated human plasma. At 0, 5, 15, 30, 60 and 120 […] min., an aliquot was taken, quenched with internal standard containing stop solution. After incubation, the samples were analyzed by LC-MS/MS. Peak area ratios of analyte to internal standard were used to calculate the half-life. Formation of the active drug Compound A over the time course was also monitored by LC-MS/MS analysis. • (Test 3) Human skin homogenate stability assay was conducted in a similar way as the human liver microsomal stability assay, by incubating 0.5 uM test compounds at 37°C for up to 45 minutes in 50 mM of potassium phosphate buffer (pH 7.4) containing 0.5 mg of human skin homogenate protein and 50 µL of NADPH generating system (7.8 mg of glucose 6-phosphate, 1.7 mg of NADPH and 6 U of glucose 6-phosphate dehydrogenase per mL in 2% w/v of sodium bicarbonate). At 0, 5, 15, 30 and 45 min., an aliquot was taken, quenched with internal standard containing stop solution. No co-factor controls at 45 minutes were also prepared. After incubation, the samples were analyzed by LC-MS/MS. Peak area ratios of analyte to internal standard were used to calculate the intrinsic clearance. The intrinsic clearance (CLint) was determined from the first order elimination constant by non-linear regression. Formation of the active drug Compound A over the time course was also monitored by LC-MS/MS analysis. • (Test 4) Human hepatocyte stability assay was conducted by incubating 0.5 uM test compound at 37°C for up to 240 minutes. Cryopreserved human hepatocytes were obtained from Celsis IVT (Baltimore, Maryland). Cells were thawed according to vendor's instructions and were suspended in William's Medium E to 0.5 million cells/mL. Test compounds were spiked into the cell suspension to initiate the reactions. At 0, 10,30,60, 120 and 240 min., an aliquot was taken, quenched with internal standard containing stop solution. After incubation, the samples were analyzed by LC-MS/MS. Peak area ratios of analyte to internal standard were used to calculate the intrinsic clearance. The intrinsic clearance (CLint) was determined from the first order elimination constant by non-linear regression. Formation of the active drug Compound A over the time course was also monitored by LC-MS/MS analysis.

Data set [2] is described as follows: Human plasma stability assay (Test 2). The conditions noted are these: 0.5 uM test compound, 37°C, up to 120 minutes, heparinated human plasma, read-out: Test 2 T1/2. On the procedure:
as §1

The nature of data set [3]: Human skin homogenate stability assay (Test 3). The conditions noted are these: 0.5 uM test compound, 37°C, up to 45 minutes, 0.5 mg human skin homogenate protein, NADPH generating system, pH 7.4, read-out: Test 3 T1/2. As to the method:
as §1

Some results are limits rather than exact numbers.

Consider `CCCCCC(O)CCC1C(OC(=O)CCCC)CC2Cc3c(cccc3OCC(=O)OC)CC21` (stereo not shown) [Compound 22, Pentanoic acid 1-(3-hydroxy-octyl)-5-methoxycarbonylmethoxy-2,3,3a,4,9,9a-hexahydro-1H-cyclopenta[b]naphthalen-2-yl ester], for which the values for the half-life at 0.5 uM in data set [1], in data set [2] and in data set [3] were less than 15 min, more than 60 min and more than 60 min, respectively.

On to `CCCCCC(O)CCC1C(O)CC2Cc3c(cccc3OCC(=O)NCCN)CC21` (stereo not shown) [Compound 8, N-(2-Amino-ethyl)-2-[2-hydroxy-1-(3-hydroxy-octyl)-2,3,3a,4,9,9a-hexahydro-1H-cyclopenta[b]naphthalen-5-yloxy]-acetamide], for which the half-life at 0.5 uM in data set [1] was in the range of 31 to 60 min.

Take `CCCCCC(O)CCC1C(O)CC2Cc3c(cccc3OCC(=O)OC)CC21` (stereo not shown) [Compound 15, [2-Hydroxy-1-(3-hydroxy-octyl)-2,3,3a,4,9,9a-hexahydro-1H-cyclopenta[b]naphthalen-5-yloxy]-acetic acid methyl ester]: the half-life at 0.5 uM in data set [1], in data set [2] and in data set [3] was less than 15 min each time.

In the case of `CCCCCC(O)CCC1C(O)CC2Cc3c(cccc3OCC(=O)OC(C)(C)C)CC21` (stereo not shown) [Compound 28, [2-Hydroxy-1-(3-hydroxy-octyl)-2,3,3a,4,9,9a-hexahydro-1H-cyclopenta[b]naphthalen-5-yloxy]-acetic acid tert-butyl ester], the half-life at 0.5 uM was less than 15 min in data set [1] and 15 to 30 min in data set [2].

Consider `CCCCCC(O)CCC1C(O)CC2Cc3c(cccc3OCC(=O)OC3CC4CCC3C4)CC21` (stereo not shown) [Compound 19, [2-Hydroxy-1-(3-hydroxy-octyl)-2,3,3a,4,9,9a-hexahydro-1H-cyclopenta[b]naphthalen-5-yloxy]-acetic acid bicyclo[2.2.1]hept-2-yl ester], for which the half-life at 0.5 uM in data set [1] was less than 15 min; in data set [2] it was 31 to 60 min; in data set [3], 15 to 30 min.

In the case of `CCCCCC(O)CCC1C(O)CC2Cc3c(cccc3OCC(=O)OC3CCOC3)CC21` (stereo not shown) [Compound 5, [2-Hydroxy-1-(3-hydroxy-octyl)-2,3,3a,4,9,9a-hexahydro-1H-cyclopenta[b]naphthalen-5-yloxy]-acetic acid tetrahydro-furan-3-yl ester], the half-life at 0.5 uM in data set [1] and in data set [2] was less than 15 min in each case.

For `CCCCCC(O)CCC1C(O)CC2Cc3c(cccc3OCC(=O)OC(C)C(C)(C)C)CC21` (stereo not shown) [Compound 18, [2-Hydroxy-1-(3-hydroxy-octyl)-2,3,3a,4,9,9a-hexahydro-1H-cyclopenta[b]naphthalen-5-yloxy]-acetic acid 1,2,2-trimethyl-propyl ester], the half-life at 0.5 uM was less than 15 min in data set [1], more than 60 min in data set [2] and more than 60 min in data set [3].

Take `CCCCCC(O)CCC1C(OC(=O)C2CC2)CC2Cc3c(cccc3OCC(=O)OC)CC21` (stereo not shown) [Compound 24, Cyclopropanecarboxylic acid 1-(3-hydroxy-octyl)-5-methoxycarbonylmethoxy-2,3,3a,4,9,9a-hexahydro-1H-cyclopenta[b]naphthalen-2-yl ester]: the half-life at 0.5 uM was less than 15 min in data set [1] and more than 60 min in data set [2].

Consider `CCCCCC(O)CCC1C(O)CC2Cc3c(cccc3OCC(=O)OCC(C)(C)C)CC21` (stereo not shown) [Compound 16, [2-Hydroxy-1-(3-hydroxy-octyl)-2,3,3a,4,9,9a-hexahydro-1H-cyclopenta[b]naphthalen-5-yloxy]-acetic acid 2,2-dimethyl-propyl ester], for which the half-life at 0.5 uM is less than 15 min in data set [1], 15 to 30 min in data set [2] and 15 to 30 min in data set [3].

Take `CCCCCC(O)CCC1C(O)CC2Cc3c(cccc3OCC(=O)OC(C)C(C)C)CC21` (stereo not shown) [Compound 17, [2-Hydroxy-1-(3-hydroxy-octyl)-2,3,3a,4,9,9a-hexahydro-1H-cyclopenta[b]naphthalen-5-yloxy]-acetic acid 1,2-dimethyl-propyl ester]: the half-life at 0.5 uM in data set [1] is less than 15 min; in data set [2], 31 to 60 min; in data set [3] it was 15 to 30 min.

For the molecule `CCCCCC(O)CCC1C(O)CC2Cc3c(cccc3OCC(=O)NCC(F)(F)C(F)(F)F)CC21` (stereo not shown) [Compound 21, 2-[2-Hydroxy-1-(3-hydroxy-octyl)-2,3,3a,4,9,9a-hexahydro-1H-cyclopenta[b]naphthalen-5-yloxy]-N-(2,2,3,3,3-pentafluoro-propyl)-acetamide], the values for the half-life at 0.5 uM in data set [1] and in data set [2] were less than 15 min and more than 60 min, respectively.

Regarding `CCCCCC(O)CCC1C(OC(=O)CCC(=O)OCC)CC2Cc3c(cccc3OCC(=O)OC)CC21` (stereo not shown) [Compound 27, Succinic acid ethyl ester 1-(3-hydroxy-octyl)-5-methoxycarbonylmethoxy-2,3,3a,4,9,9a-hexahydro-1H-cyclopenta[b]naphthalen-2-yl ester], the half-life at 0.5 uM in data set [1] was less than 15 min; in data set [2] it was more than 60 min.

`CCCCCC(O)CCC1C(O)CC2Cc3c(cccc3OCC(=O)OC(C)C(=O)OC)CC21` (stereo not shown) [Compound 6, 2-{2-[2-Hydroxy-1-(3-hydroxy-octyl)-2,3,3a,4,9,9a-hexahydro-1H-cyclopenta[b]naphthalen-5-yloxy]-acetoxy}-propionic acid methyl ester]: the half-life at 0.5 uM in data set [1] and in data set [2] was less than 15 min each time.

Turning to `CCCCCC(O)CCC1C(O)CC2Cc3c(cccc3OCC(=O)OCCCF)CC21` (stereo not shown) [Compound 4, [2-Hydroxy-1-(3-hydroxy-octyl)-2,3,3a,4,9,9a-hexahydro-1H-cyclopenta[b]naphthalen-5-yloxy]-acetic acid 3-fluoro-propyl ester], the half-life at 0.5 uM in data set [1] and in data set [2] was less than 15 min throughout.

On to `CCCCCC(O)CCC1C(O)CC2Cc3c(cccc3OCC(=O)OCCOC)CC21` (stereo not shown) [Compound 10, [2-Hydroxy-1-(3-hydroxy-octyl)-2,3,3a,4,9,9a-hexahydro-1H-cyclopenta[b]naphthalen-5-yloxy]-acetic acid 2-methoxy-ethyl ester], for which the half-life at 0.5 uM in data set [1] was less than 15 min.

Consider `CCCCCC(O)CCC1C(O)CC2Cc3c(cccc3OCC(=O)NCCCO)CC21` (stereo not shown) [Compound 11, 2-[2-Hydroxy-1-(3-hydroxy-octyl)-2,3,3a,4,9,9a-hexahydro-1H-cyclopenta[b]naphthalen-5-yloxy]-N-(3-hydroxy-propyl)-acetamide], for which the half-life at 0.5 uM in data set [1] was less than 15 min; in data set [2], more than 60 min.

In the case of `CCCCCC(O)CCC1C(O)CC2Cc3c(cccc3OCC(=O)OCCO)CC21` (stereo not shown) [Compound 9, [2-Hydroxy-1-(3-hydroxy-octyl)-2,3,3a,4,9,9a-hexahydro-1H-cyclopenta[b]naphthalen-5-yloxy]-acetic acid 2-hydroxy-ethyl ester], the half-life at 0.5 uM in data set [1] was less than 15 min.

Turning to `CCCCCC(O)CCC1C(OC(=O)CC(C)C)CC2Cc3c(cccc3OCC(=O)OC)CC21` (stereo not shown) [Compound 23, 3-Methyl-butyric acid 1-(3-hydroxy-octyl)-5-methoxycarbonylmethoxy-2,3,3a,4,9,9a-hexahydro-1H-cyclopenta[b]naphthalen-2-yl ester], the half-life at 0.5 uM in data set [1] was less than 15 min; in data set [2], more than 60 min.

As to `CCCCCC(O)CCC1C(O)CC2Cc3c(cccc3OCC(=O)OCC3CC3)CC21` (stereo not shown) [Compound 1, [2-Hydroxy-1-(3-hydroxy-octyl)-2,3,3a,4,9,9a-hexahydro-1H-cyclopenta[b]naphthalen-5-yloxy]-acetic acid cyclopropylmethyl ester], the half-life at 0.5 uM in data set [1] and in data set [2] was less than 15 min each time.

On to `CCCCCC(O)CCC1C(O)CC2Cc3c(cccc3OCC(=O)NCC(=O)OC)CC21` (stereo not shown) [Compound 12, {2-[2-Hydroxy-1-(3-hydroxy-octyl)-2,3,3a,4,9,9a-hexahydro-1H-cyclopenta[b]naphthalen-5-yloxy]-acetylamino}-acetic acid methyl ester], for which the half-life at 0.5 uM is less than 15 min in data set [1] and more than 60 min in data set [2].
